pIC50: −log10 of the molar value. Values joined by “and” are separate entries in the source; they are usually repeats but may differ in a detail not shown here. Equal entries are not always repeated. Where two headings read alike, the source gives them in different places.
Columns and labels:
Assay type in all cases: cell-based
[1] = test system: cancer cell lines; experiment: In vitro cancer cell assays (antiproliferation, cell line not given)
Protocol: (§1) All cell lines were cultured at 37 °C with 5% CO2 in a humidified incubator. HeLa cells were grown in MEM (Gibco) supplemented with 10% fetal bovine serum (FBS, Hyclone) and 1% penicillin/streptomycin (Gibco). MIA PaCa-2, MDA-MB-231, A549, MCF-7, A375 and BEAS-2B cells were grown in DMEM (Gibco) supplemented with 10% FBS and 1% penicillin/streptomycin. CT26, and HCT116 cells were grown in RPMI-1640 supplemented with 10% FBS and 1% penicillin/streptomycin. All cell lines were purchased from the National Collection of Authenticated Cell Cultures (China).
(§2) The antiproliferative activities of the prepared compounds against tested cell lines were evaluated using a standard (MTT)-based colorimetric assay. Cells were plated at a density of 3000 cells/well in 96-well plates and allowed to adhere overnight. Then cells were treated with varying concentrations of synthesized compounds for 72 h. At the end of treatment, 20 μL of thiazolyl blue tetrazolium bromide (MTT) solution (5 mg/mL) was added to each well. Cells were incubated for an additional 4 h at 37 °C and then the medium was removed and replaced with 200 μL of DMSO. The absorbance (OD490) was read on a microplate reader (SpectraMax i3x, Molecular Devices, US). In all experiments, three replicate wells were used for each drug concentration. Each assay was performed at least three times. The IC50 values were calculated by GraphPad Prism 9, which were the mean values derived from three independent experiments.

[2] = test system: HCT 116; experiment: MTT cell viability assay, HCT 116
Protocol: as §1, §2

[3] = test system: Hela; experiment: MTT cell viability assay, Hela
Protocol: as §1, §2

[4] = test system: MDA-MB-231; experiment: MTT cell viability assay, MDA-MB-231
Protocol: as §1, §2

[5] = test system: MIA PaCa-2; experiment: MTT cell viability assay, MIA PaCa-2
Protocol: as §1, §2

[6] = MTT cytotoxicity towards normal cells, BEAS-2B; details: human
Protocol: as §1, §2

[7] = test system: CT26; experiment: MTT cell viability assay, CT26
Protocol: as §1, §2

[8] = test system: MCF-7; experiment: MTT cell viability assay, MCF-7
Protocol: as §1, §2

[9] = test system: A549; experiment: MTT cell viability assay, A549
Protocol: as §1, §2

[10] = test system: A375; experiment: MTT cell viability assay, A375
Protocol: as §1, §2

[11] = test system: lung epithelial BEAS-2B cells; experiment: MTT cytotoxicity towards normal cells, BEAS-2B
Protocol: as §1, §2

[12] = source data sheet, single values of three experiments, read-out: MTT IC50 HCT-116
[13] = source data sheet, single values of three experiments, read-out: MTT IC50 Hela
[14] = source data sheet, single values of three experiments, read-out: MTT IC50 MDA-MB-231
[15] = source data sheet, single values of three experiments, read-out: MTT IC50 MIA PaCa-2
[16] = source data sheet, single values of three experiments, read-out: MTT IC50 CT-26
[17] = source data sheet, single values of three experiments, read-out: MTT IC50 MCF-7
[18] = source data sheet, single values of three experiments, read-out: MTT IC50 A549
[19] = source data sheet, single values of three experiments, read-out: MTT IC50 A375

For C=C=C1CN2[C@H]3C[C@H]1[C@H](CO)[C@@H]2Cc1c3n(S(=O)(=O)c2ccc(C)cc2)c2ccccc12 [Compound 15ao], the “loss in antiproliferation activity on replacing the aldehyde group” value ([1]; SAR statement in words) was “complete”.
C=C=C1CN2[C@H]3C[C@H]1[C@H](C=O)[C@@H]2Cc1c3n(S(=O)(=O)c2ccc(C(F)(F)F)cc2)c2ccccc12 [Compound 15am] showed a pIC50 ([1]; cell line not given) of under 4.30.
With CC=C1CN2C3CC1C(C=O)C2Cc1c3[nH]c2ccccc12 (centres unmarked) [vellosimine (4), vellosimine] the pIC50 ([2]; Homo sapiens, HCT-116, 72 h, MTT, 72 h, mean of at least three independent experiments, read-out: IC50 HCT 116) was 4.56, the pIC50 ([2]; Homo sapiens, HCT-116, source data sheet, single values of three experiments, read-out: MTT IC50 HCT-116) was 4.53 and the pIC50 [2, 12] was 4.60 and 4.56. The pIC50 ([3]; Homo sapiens, HeLa, 72 h, MTT, 72 h, mean of at least three independent experiments, read-out: IC50 Hela) was 4.62, the pIC50 ([3]; Homo sapiens, HeLa, source data sheet, single values of three experiments, read-out: MTT IC50 Hela) was 4.56 and the pIC50 [3, 13] was 4.65. The pIC50 ([4]; Homo sapiens, MDA-MB-231, 72 h, MTT, 72 h, mean of at least three independent experiments, read-out: IC50 MDA-MB-231) was 4.67, the pIC50 ([4]; Homo sapiens, MDA-MB-231, source data sheet, single values of three experiments, read-out: MTT IC50 MDA-MB-231) was 4.64 and the pIC50 [4, 14] was 4.74 and 4.65. For the same compound, the pIC50 ([5]; Homo sapiens, MIA PaCa-2, 72 h, MTT, 72 h, mean of at least three independent experiments, read-out: IC50 MIA PaCa-2) was 4.49, the pIC50 ([5]; Homo sapiens, MIA PaCa-2, source data sheet, single values of three experiments, read-out: MTT IC50 MIA PaCa-2) was 4.44 and the pIC50 [5, 15] was 4.53 and 4.49. It also gave an IC50 at 72 h ([6]; BEAS-2B lung epithelial cells (normal cells), source data sheet, single values of three experiments) of over 100 µM, a CC50 at 72 h ([6]; BEAS-2B lung epithelial cells, MTT, 72 h, cytotoxicity towards normal cells, mean of at least three independent experiments) of over 100 µM and a pIC50 ([7]; Mus musculus, CT26, 72 h, MTT, 72 h, mean of at least three independent experiments, read-out: IC50 CT26) of 4.69. The pIC50 ([7]; Mus musculus, CT26, source data sheet, single values of three experiments, read-out: MTT IC50 CT-26) was 4.72, the pIC50 [7, 16] was 4.63 and 4.73 and the pIC50 ([8]; Homo sapiens, MCF7, 72 h, MTT, 72 h, mean of at least three independent experiments, read-out: IC50 MCF-7) was 4.41. For the same compound, the pIC50 ([8]; Homo sapiens, MCF7, source data sheet, single values of three experiments, read-out: MTT IC50 MCF-7) was 4.41, the pIC50 [8, 17] was 4.37 and 4.44 and the pIC50 ([9]; Homo sapiens, A549, 72 h, MTT, 72 h, mean of at least three independent experiments, read-out: IC50 A549) was 4.63. The pIC50 ([9]; Homo sapiens, A549, source data sheet, single values of three experiments, read-out: MTT IC50 A549) was 4.65, the pIC50 [9, 18] was 4.58 and 4.67 and the pIC50 ([10]; Homo sapiens, A-375, 72 h, MTT, 72 h, mean of at least three independent experiments, read-out: IC50 A375) was 4.54. For the same compound, the pIC50 ([10]; Homo sapiens, A-375, source data sheet, single values of three experiments, read-out: MTT IC50 A375) was 4.49, the pIC50 [10, 19] was 4.58 and 4.56 and the “antiproliferation activity in the in vitro cancer cell assays” value ([1]; result in words) was “moderate antiproliferation activity”.
In the case of C=C=C1CN2[C@H]3C[C@H]1[C@H](C=O)[C@@H]2Cc1c3n(S(=O)(=O)c2ccc(C)cc2)c2ccccc12 [Compound 15ad], the pIC50 ([2]; MTT, 72 h, mean of at least three independent experiments, read-out: IC50 HCT 116) was 5.28, the pIC50 [2, 12] was 5.18 and 5.39 and 5.30 and the pIC50 ([3]; MTT, 72 h, mean of at least three independent experiments, read-out: IC50 Hela) was 5.36. For the same compound, the pIC50 [3, 13] was 5.29 and 5.36 and 5.45, the pIC50 ([4]; MTT, 72 h, mean of at least three independent experiments, read-out: IC50 MDA-MB-231) was 5.51 and the pIC50 [4, 14] was 5.52 and 5.42 and 5.62. For the same compound, the pIC50 ([5]; MTT, 72 h, mean of at least three independent experiments, read-out: IC50 MIA PaCa-2) was 4.92, the pIC50 [5, 15] was 4.91 and 4.85 and 5.00 and the CC50 ([11]; MTT, 72 h, cytotoxicity towards normal cells, mean of at least three independent experiments) was over 100 µM. The pIC50 ([11]; source data sheet, single values of three experiments) was under 4.00, the pIC50 ([7]; MTT, 72 h, mean of at least three independent experiments, read-out: IC50 CT26) was 5.09 and the pIC50 [7, 16] was 5.00 and 5.14 and 5.15. For the same compound, the pIC50 ([8]; MTT, 72 h, mean of at least three independent experiments, read-out: IC50 MCF-7) was 4.95, the pIC50 [8, 17] was 4.98 and 4.85 and 5.04 and the pIC50 ([9]; MTT, 72 h, mean of at least three independent experiments, read-out: IC50 A549) was 4.98. For the same compound, the pIC50 [9, 18] was 5.03 and 4.92 and 5.00, the pIC50 ([10]; MTT, 72 h, mean of at least three independent experiments, read-out: IC50 A375) was 5.45 and the pIC50 [10, 19] was 5.30 and 5.57 and 5.52.
